# Measured values published in PubChem BioAssay AID1963425 (Molecular Pharmacology Branch, DTP, NCI, 2024).
# Test system: 323965-272-R-J2-PDC complex spheroid growth, % test/control
# Test: Anticancer human tumor 323965-272-R-J2-PDC patient-derived pancreatic carcinoma cell line growth inhibition [Asc]
# Details: for IC50: curve of first compound; for viability, T/C: stronger effect = lower value
# How it was run: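 Tumor cells were grown as multicellular spheroids with stromal HUVEC and mesenchymal stem cells and treated singly or in combination. Concentrations fell in half-log steps from the clinical Cmax, or from 10 microM where none was known.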
# [1] = second compound 0.0316 µM, first compound 0.000949 µM
# [2] = second compound 0.0316 µM, first compound 0.003 µM
# [3] = second compound 0.0316 µM, first compound 0.00949 µM
# [4] = second compound 0.0316 µM, first compound 0.03 µM
# [5] = second compound 0.0316 µM, first compound 0.0949 µM
# [6] = second compound 0.0316 µM, first compound 0.3 µM
# [7] = second compound 0.1 µM, first compound 0.000949 µM
# [8] = second compound 0.1 µM, first compound 0.003 µM
# [9] = second compound 0.1 µM, first compound 0.00949 µM
# [10] = second compound 0.1 µM, first compound 0.03 µM
# [11] = second compound 0.1 µM, first compound 0.0949 µM
# [12] = second compound 0.1 µM, first compound 0.3 µM
# [13] = second compound 0.316 µM, first compound 0.000949 µM
# [14] = second compound 0.316 µM, first compound 0.003 µM
# [15] = second compound 0.316 µM, first compound 0.00949 µM
# [16] = second compound 0.316 µM, first compound 0.03 µM
# [17] = second compound 0.316 µM, first compound 0.0949 µM
# [18] = second compound 0.316 µM, first compound 0.3 µM
# [19] = second compound 1 µM, first compound 0.000949 µM
# [20] = second compound 1 µM, first compound 0.003 µM
# [21] = second compound 1 µM, first compound 0.00949 µM
# [22] = second compound 1 µM, first compound 0.03 µM
# [23] = second compound 1 µM, first compound 0.0949 µM
# [24] = second compound 1 µM, first compound 0.3 µM
# 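Note: compound exposure lasted 7 days starting three days after spheroid seeding.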
# 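Throughout, for viability, T/C: 100% = DMSO vehicle control wells with viability set relative to vehicle.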
compound,measurement,setting,value
NC(=O)C(=Cn1cnc(-c2cc(C(F)(F)F)cc(C(F)(F)F)c2)n1)c1cncnc1 + CNC(C)C(=O)NC1CN(S(=O)(=O)c2cccc(S(=O)(=O)N3CCC4CCC(C(=O)NC(c5ccccc5)c5ccccc5)N4C(=O)C(NC(=O)C(C)NC)C3)c2)CCC2CCC(C(=O)NC(c3ccccc3)c3ccccc3)N2C1=O,IC50,second compound 0.00316 µM,> 300 nM
same,IC50,second compound 0.01 µM,> 300 nM
same,IC50,second compound 0.0316 µM,> 300 nM
same,IC50,second compound 0.1 µM,> 300 nM
same,IC50,second compound 0.316 µM,> 300 nM
same,IC50,second compound 1 µM,> 300 nM
same,"viability, T/C","second compound 0.00316 µM, first compound 0.000949 µM",121%
same,"viability, T/C","second compound 0.00316 µM, first compound 0.003 µM",120%
same,"viability, T/C","second compound 0.00316 µM, first compound 0.00949 µM",97.1%
same,"viability, T/C","second compound 0.00316 µM, first compound 0.03 µM",99.6%
same,"viability, T/C","second compound 0.00316 µM, first compound 0.0949 µM",70.7%
same,"viability, T/C","second compound 0.00316 µM, first compound 0.3 µM",76.2%
same,"viability, T/C","second compound 0.01 µM, first compound 0.000949 µM",103%
same,"viability, T/C","second compound 0.01 µM, first compound 0.003 µM",108%
same,"viability, T/C","second compound 0.01 µM, first compound 0.00949 µM",109%
same,"viability, T/C","second compound 0.01 µM, first compound 0.03 µM",91.1%
same,"viability, T/C","second compound 0.01 µM, first compound 0.0949 µM",78.8%
same,"viability, T/C","second compound 0.01 µM, first compound 0.3 µM",62.5%
same,"viability, T/C",[1],103%
same,"viability, T/C",[2],109%
same,"viability, T/C",[3],108%
same,"viability, T/C",[4],86.7%
same,"viability, T/C",[5],74.5%
same,"viability, T/C",[6],61.7%
same,"viability, T/C",[7],105%
same,"viability, T/C",[8],104%
same,"viability, T/C",[9],104%
same,"viability, T/C",[10],87%
same,"viability, T/C",[11],80.4%
same,"viability, T/C",[12],62.5%
same,"viability, T/C",[13],107%
same,"viability, T/C",[14],111%
same,"viability, T/C",[15],96.3%
same,"viability, T/C",[16],93.6%
same,"viability, T/C",[17],77.1%
same,"viability, T/C",[18],62.4%
same,"viability, T/C",[19],101%
same,"viability, T/C",[20],104%
same,"viability, T/C",[21],77.3%
same,"viability, T/C",[22],83.7%
same,"viability, T/C",[23],78.4%
same,"viability, T/C",[24],71%
NC(=O)C(=Cn1cnc(-c2cc(C(F)(F)F)cc(C(F)(F)F)c2)n1)c1cncnc1 + Cc1c(S(C)(=O)=O)c(-c2cc(F)cc(N3CCN(c4ccc(NS(=O)(=O)c5ccc(NC(CCN6CCC(C(=O)OCCCP(=O)(O)O)CC6)CSc6ccccc6)c(S(=O)(=O)C(F)(F)F)c5)cc4)CC3)c2)c(-c2ccc(Cl)cc2)n1C(C)C,IC50,second compound 0.0316 µM,> 300 nM
same,IC50,second compound 0.1 µM,> 300 nM
same,IC50,second compound 0.316 µM,> 300 nM
same,IC50,second compound 1 µM,205 nM
same,IC50,second compound 3.16 µM,114 nM
same,IC50,second compound 10 µM,63.7 nM
same,"viability, T/C",[1],111%
same,"viability, T/C",[2],96.9%
same,"viability, T/C",[3],115%
same,"viability, T/C",[4],89.1%
same,"viability, T/C",[5],81.5%
same,"viability, T/C",[6],55.8%
same,"viability, T/C",[7],95.2%
same,"viability, T/C",[8],92.8%
same,"viability, T/C",[9],92%
same,"viability, T/C",[10],94.8%
same,"viability, T/C",[11],78%
same,"viability, T/C",[12],53.8%
same,"viability, T/C",[13],94%
same,"viability, T/C",[14],100%
same,"viability, T/C",[15],93.3%
same,"viability, T/C",[16],84.9%
same,"viability, T/C",[17],76.1%
same,"viability, T/C",[18],49.8%
same,"viability, T/C",[19],91%
same,"viability, T/C",[20],88.6%
same,"viability, T/C",[21],80.2%
same,"viability, T/C",[22],77.6%
same,"viability, T/C",[23],64.4%
same,"viability, T/C",[24],42.6%
same,"viability, T/C","second compound 3.16 µM, first compound 0.000949 µM",79%
same,"viability, T/C","second compound 3.16 µM, first compound 0.003 µM",78.1%
same,"viability, T/C","second compound 3.16 µM, first compound 0.00949 µM",76%
same,"viability, T/C","second compound 3.16 µM, first compound 0.03 µM",63.1%
same,"viability, T/C","second compound 3.16 µM, first compound 0.0949 µM",55%
same,"viability, T/C","second compound 3.16 µM, first compound 0.3 µM",32.6%
same,"viability, T/C","second compound 10 µM, first compound 0.000949 µM",69.9%
same,"viability, T/C","second compound 10 µM, first compound 0.003 µM",68.7%
same,"viability, T/C","second compound 10 µM, first compound 0.00949 µM",63.1%
same,"viability, T/C","second compound 10 µM, first compound 0.03 µM",63.6%
same,"viability, T/C","second compound 10 µM, first compound 0.0949 µM",43%
same,"viability, T/C","second compound 10 µM, first compound 0.3 µM",30.3%
